{"source": "patent US9616081B2", "about": "“Antitumor agent including low-dose irinotecan hydrochloride hydrate” (TAIHO PHARMACEUTICAL CO., LTD., priority 2013, dated 2017)", "key": {"[1]": {"details": "dose of 111 mg/kg/day; cited from earlier work"}, "[2]": {"test_system": "human gastric cancer cell line (SC-2)", "experiment": "Example 3: combined administration test, SC-2 tumor in mice (RTV, TGI)", "details": "Day 1, 8, i.v., q.d."}, "[3]": {"test_system": "human colon cancer cell line (KM20C)", "experiment": "Reference Example: survival of mice intraperitoneally transplanted with KM20C, monotherapy", "assay_type": "in vivo", "details": "i.v., weekly; for ILS (increase in life span): 6 weeks from Day 3; for Survival time (day) Mean ± SD: 6 weeks from Day 3, BALB/cA Jcl-nu mice", "description": "Cultured cells (1×10^7 cells/mouse) of human colon cancer cell line (KM20C) were intraperitoneally transplanted into 5-6 weeks old BALB/cA Jcl-nu mice after birth, and the mice were assigned to each group so that the mean body weight of each group became equal. The date on which such grouping (n=10) was performed was taken as Day 0.\n[…]. Starting the dug administration from Day 3, a 5-days' daily oral administration of the FTD/TPI combination drug with 2-days' rest was performed for 6 weeks, and CPT-11 was administered once in a week from the tail vein for 6 weeks.\nAs an index of the antitumor effect, the number of survivors of each group of mice and the survival time of each group was compared."}}, "note": "Where a name gives a salt, the structure may show the parent alone.", "data": [{"compound": "CCc1c2c(nc3ccc(OC(=O)N4CCC(N5CCCCC5)CC4)cc13)-c1cc3c(c(=O)n1C2)COC(=O)[C@]3(O)CC", "note": "[CPT-11, irinotecan hydrochloride hydrate]", "values": [{"measurement": "death case reported", "setting": "[1]", "result": "death case"}, {"measurement": "TGI, tumor growth inhibition rate on Day 15", "setting": "[2]; 40 mg/kg/day", "result": 64.6, "unit": "%"}, {"measurement": "TGI, tumor growth inhibition rate on Day 15", "setting": "[2]; 80 mg/kg/day", "result": 79.4, "unit": "%"}, {"measurement": "ILS (increase in life span)", "setting": "[3]; 80 mg/kg/day", "result": 54.0, "unit": "%"}, {"measurement": "Survival time (day) Mean ± SD", "setting": "[3]; 80 mg/kg/day", "result": "61.6 ± 12.6", "unit": "days"}, {"measurement": "ILS (increase in life span)", "setting": "[3]; 100 mg/kg/day", "result": 81.3, "unit": "%"}, {"measurement": "Survival time (day) Mean ± SD", "setting": "[3]; 100 mg/kg/day", "result": "72.5 ± 12.3", "unit": "days"}]}]}
